According to patent publication US11667628B2, “Compounds for imaging tau proteins that accumulate in brain” (National Institutes for Quantum and Radiological Science …, priority 2012, dated 2023):

Legend:
[1] = target: Human T40 (the longest tau isoform formed with 441 amino acid residues) fibrils (Homo sapiens, UniProt P10636); assay: In vitro fluorometric binding assay, recombinant T40 tau fibrils; conditions: for EC50: average±SE, concentration giving half of maximum fluorescence intensity; for λem (nm) T40: detection wavelength; for λem (nm) T40 / λex (nm) T40: compound bound to T40 polymers; for affinity to tau pathologies: fluorometric analysis using Aβ and tau filaments formed in a test tube; for λex (nm) T40: optimal excitation wavelength; for EC50 (Aβ)/EC50 (Tau): ratio of EC50 of Aβ40 fibrils to EC50 of T40 fibrils
Sequence of Human T40 (the longest tau isoform formed with 441 amino acid residues) fibrils (P10636 1-441 isoform P10636-8): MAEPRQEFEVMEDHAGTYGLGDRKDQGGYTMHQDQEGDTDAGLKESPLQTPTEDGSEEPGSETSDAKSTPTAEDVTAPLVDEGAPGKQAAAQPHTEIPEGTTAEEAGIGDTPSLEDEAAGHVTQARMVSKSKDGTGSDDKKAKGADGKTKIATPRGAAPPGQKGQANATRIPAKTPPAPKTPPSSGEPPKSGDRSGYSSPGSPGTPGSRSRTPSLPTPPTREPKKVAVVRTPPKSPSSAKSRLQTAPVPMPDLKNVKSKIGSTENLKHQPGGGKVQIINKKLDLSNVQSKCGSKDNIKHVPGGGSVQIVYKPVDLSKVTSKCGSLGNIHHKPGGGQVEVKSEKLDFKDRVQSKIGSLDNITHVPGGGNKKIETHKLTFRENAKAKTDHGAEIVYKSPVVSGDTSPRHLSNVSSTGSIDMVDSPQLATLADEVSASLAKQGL

Aβ40 fibrils = Aβ40 fibrils (Homo sapiens, UniProt P05067); assay: In vitro fluorometric binding assay, Aβ40 fibrils; conditions: for EC50: average±SE, concentration giving half of maximum fluorescence intensity; for λem (nm) Aβ40: detection wavelength; for λem (nm) Aβ40 / λex (nm) Aβ40: compound bound to Aβ40 polymers; for λex (nm) Aβ40: optimal excitation wavelength
Sequence of Aβ40 fibrils (P05067 672-711 limits assumed): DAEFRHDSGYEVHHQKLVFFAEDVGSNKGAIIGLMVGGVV

[2] = tested on: NFTs in the AD patient's hippocampus; assay: In vivo PET imaging of humans; set-up: species or system human; conditions: same AD and normal control subjects
From the text: 2 subjects with normal cognitive function ([…]; average 73.5 years old), and 3 AD patients ([…] years old; average 72 years old) were employed for this study. All the subjects were males, and all the AD patients were diagnosed in accordance with the standards of the National Institute of Neurological and Communicative Diseases and Stroke/Alzheimer's Disease and Related Disorders Association (NINCDS-ADRDA). The clinical dementia rating scale was 0 for both normal subjects, and ranged from 1 to 2 with the AD patients. Their cognitive function was evaluated by a mini-mental state examination (MMSE). […] During the [^11C]PBB-PET scanning, artery blood samples are obtained 10, 20, 30, 40, 50, 60, 70, 80, 90, 100, and 110 seconds after the injection, and 2, 2.5, 3, 4, 5, 6, 7, 8, 9, 10, 12, 15, 20, 25, 30, 40, 50, 60 and 70 minutes after the injection, and the amount of radioactivity in the plasma was measured. The radioactivity to match [^11C]PBB3 in unmetabolized plasma was measured by HPLC using the samples from 3, 10, 20, 30 and 60 minutes after the injection (Waters mBondapak C18 column, 7.8 mm×300 mm; acetonitrile/ammonium formate mobile phase, gradient elution=40/60 (0 minutes), 52/48 (6 minutes), 80/20 (7 minutes), 80/20 (8 minutes), 40/60 (9 minutes) and 40/60 (15 minutes); flow rate, 6 mL/minute). […]

[3] = tested on: NFTs in AD brain slices including the hippocampal formation; assay: In vitro autoradiography of AD brains including hippocampal formation; format: binding, human; conditions: for total binding after addition of non-radioactive PBB5 (100 μM) and thioflavin-S (10 μM) / signals in hippocampus CAI region and pes hippocampi: 10 nM radioligand; for signals in hippocampus CAI region and pes hippocampi: AD patient's brain slice
Description: 12 to 15-month-old non-Tg WT mice and PS19 mice were decapitated, and their brains were frozen and sliced into 20 μm-thick sections in a cryostat (HM560). The sections were placed on slide glass (Matsunami Glass), and kept at −80° C., until an analysis. Similarly, sections of the cerebral cortex were obtained from an AD patient. […] Non-specific bonding was detected in the presence of a 10 μMV non-radioactive ligand. Samples were reacted with [^11C]PBB2 or [^11C]PBB3, and were each washed twice, for 2 minutes, with an ice-cool Tris-HCl buffer solution containing 20% or 10% ethanol, and immersed in ice water for 10 seconds. After that, the sections were dried with warm air, and placed on imaging plates (Fuji Film). The imaging plates were scanned by a BAS500 system (Fuji Film), and autoradiograms were obtained (FIG. 6A).
In order to compare the binding of [^11C]PBB3 and [^11C]PIB to areas inside the human brain where there were plenty of tau pathologies, in vitro autoradiograms were obtained using AD brain slices including the hippocampal formation.

[4] = tested on: fibrous aggregate pathologies in AD grey matter; assay: In vitro autoradiography, AD frontal cortex sections; format: binding, human; conditions: up to 1 nM radioligand
[5] = literature by Zhuang et al.; cited from earlier work

With `CC[n+]1c(/C=C/C=C/c2ccc(N(C)C)cc2)sc2ccccc21` [PBB5, 2-((1E,3E)-4-(4-(dimethylamino)phenyl)buta-1,3-dienyl)-3-ethylbenzo[d] thiazole-3-ium] the EC50 [1] was 126 ± 67 nM, the “λem (nm) T40” value [1] was 685 nm and the “affinity to tau pathologies” value [1] was “high affinity”. For the same compound, the “λex (nm) T40” value [1] was 630 nm, the “EC50 (Aβ)/EC50 (Tau)” value [1] was 9.7 and the EC50 (Aβ40 fibrils) was 1220 nM. The “λem (nm) Aβ40” value (Aβ40 fibrils) was 685 nm and the “λex (nm) Aβ40” value (Aβ40 fibrils) was 635 nm.

With `[11CH3]Nc1ccc(-c2nc3ccc(O)cc3s2)cc1` [[^11C]PIB, reference compound] the “PET signal in hippocampal formation of AD patient compared to NC” value [2] was “did not change much”, the “total binding after addition of non-radioactive PBB5 (100 μM) and thioflavin-S (10 μM)” value [3] was “clearly discarded, except for the white matter” and the “signals in hippocampus CAI region and pes hippocampi” value [3] was “no [^11C]PIB signal was observed”.

For `[11CH3]Nc1ccc(/C=C/C=C/c2nc3ccc(O)cc3s2)cc1` [[^11C]PBB2, 2-((1E,3E)-4-(4-([^11C]methylamino)phenyl)buta-1,3-dienyl)benz[d]thiazole-6-ol], the “radiolabeling of fibrous aggregate pathologies, AD grey matters” value [4] was “strongly radio-labeled”.

For `CN(C)c1ccc(/C=C/C=C/c2nc3ccccc3s2)cc1` [PBB1, 4-((1E,3E)-4-(benz[d]thiazole-2-yl)buta-1,3-dienyl)-N,N-dimethylaniline], the EC50 [1] was 402 ± 352 nM, the “λem (nm) T40” value [1] was 565 nm and the “affinity to tau pathologies” value [1] was “high affinity”. For the same compound, the “λex (nm) T40” value [1] was 515 nm, the “EC50 (Aβ)/EC50 (Tau)” value [1] was 10.2 and the EC50 (Aβ40 fibrils) was 4110 nM. For the same compound, the “λem (nm) Aβ40” value (Aβ40 fibrils) was 565 nm and the “λex (nm) Aβ40” value (Aβ40 fibrils) was 440 nm.

In the case of `O=C(O)c1cc(/C=C/c2ccc(/C=C/c3ccc(O)c(C(=O)O)c3)c(F)c2)ccc1O` [FSB, (E,E)-1-fluoro-2,5-bis(3-hydroxycarbonyl-4-hydroxy)styrylbenzene], the “passing the blood brain barrier” value [5] is given as “difficulty passing the blood brain barrier”.

In the case of thioflavin-S, the “passing the blood brain barrier” value [5] is listed as “difficulty passing the blood brain barrier”.

For `Cc1ccc2c(c1)sc(-c1ccc(N(C)C)cc1)[n+]2C.[Cl-]` [Thioflavin-T, reference compound], the “λem (nm) T40” value [1] was 485 nm, the “λex (nm) T40” value [1] was 445 nm and the “λem (nm) Aβ40” value (Aβ40 fibrils) was 495 nm. For the same compound, the “λex (nm) Aβ40” value (Aβ40 fibrils) was 445 nm.

With `[11CH3]Nc1ccc(/C=C/C=C/c2nc3ccc(O)cc3s2)cn1` [[^11C]PBB3, 2-((1E,3E)-4-(6-([^11C]methylamino)pyridine-3-yl)buta-1,3-dienyl)benz[d]thiazole-6-ol] the “PET signal in hippocampal formation of AD patient compared to NC” value [2] was “increased”, the “total binding after addition of non-radioactive PBB5 (100 μM) and thioflavin-S (10 μM)” value [3] was “clearly discarded” and the “signals in hippocampus CAI region and pes hippocampi” value [3] was “Strong [^11C]PBB3 signals were observed”. The “binding in cortex region in the side of the collateral sulcus” value ([3]; compared to [^11C]PIB) was “more binding” and the “radiolabeling of fibrous aggregate pathologies, AD grey matters” value [4] was “strongly radio-labeled”.
